Assay results published in the NIST ThermoML archive (doi:10.1016/j.jct.2007.05.005).

Experiment: xn = mol fraction of the nth substance listed
Conditions: 101.3 kPa, Liquid; for speed of sound: Sing-around technique in a fixed-path interferometer

CCOC(C)(C)C [2-ethoxy-2-methylpropane] + CCc1ccccc1
Conditions | mass density, 288.15 K [kg/m3] | mass density, 298.15 K [kg/m3] | mass density, 323.15 K [kg/m3] | speed of sound, 288.15 K [m/s] | speed of sound, 298.15 K [m/s] | speed of sound, 323.15 K [m/s]
x1 = 0.062 | 862.801 | 854.066 | 831.864 | 1341.6 | 1298.5 | 1195.2
x1 = 0.122 | 855.221 | 846.39 | 823.917 | 1324.4 | 1281 | 1177.2
x1 = 0.239 | 840.448 | 831.434 | 808.496 | 1291.1 | 1247.3 | 1142.5
x1 = 0.353 | 826.071 | 816.917 | 793.606 | 1258.9 | 1214.8 | 1109
x1 = 0.455 | 813.347 | 804.045 | 780.291 | 1230.1 | 1185.7 | 1079
x1 = 0.556 | 800.809 | 791.351 | 767.168 | 1201.7 | 1157.1 | 1049.8
x1 = 0.653 | 788.72 | 779.094 | 754.45 | 1174.2 | 1129.3 | 1021.4
x1 = 0.746 | 777.039 | 767.306 | 742.327 | 1148.3 | 1103.2 | 994.59
x1 = 0.834 | 765.895 | 756.026 | 730.658 | 1123.2 | 1077.9 | 968.81
x1 = 0.918 | 755.524 | 745.492 | 719.646 | 1099.7 | 1054 | 944.36
x1 = 0.959 | 750.111 | 740.037 | 714.068 | 1088 | 1042.2 | 932.2
x1 = 1 | 744.955 | 734.806 | 708.642 | 1076.4 | 1031 | 920.73

CCOC(C)(C)C [2-ethoxy-2-methylpropane] + Cc1ccccc1
Conditions | mass density, 288.15 K [kg/m3] | mass density, 298.15 K [kg/m3] | mass density, 323.15 K [kg/m3] | speed of sound, 288.15 K [m/s] | speed of sound, 298.15 K [m/s] | speed of sound, 323.15 K [m/s]
x1 = 0.052 | 864.001 | 854.662 | 831.025 | 1332.1 | 1288.3 | 1181.6
x1 = 0.108 | 855.965 | 846.56 | 822.744 | 1315.2 | 1271.3 | 1164
x1 = 0.217 | 840.966 | 831.445 | 807.297 | 1282.6 | 1238.1 | 1130.6
x1 = 0.301 | 829.662 | 820.051 | 795.645 | 1258.9 | 1214.7 | 1106.5
x1 = 0.41 | 815.355 | 805.638 | 780.903 | 1228 | 1183.6 | 1075
x1 = 0.505 | 803.55 | 793.739 | 768.747 | 1202.7 | 1158.1 | 1049.3
x1 = 0.615 | 789.864 | 779.951 | 754.631 | 1173.5 | 1129.1 | 1019.7
x1 = 0.701 | 779.62 | 769.63 | 744.088 | 1151.5 | 1107 | 997.51
x1 = 0.805 | 767.503 | 757.422 | 731.601 | 1125.3 | 1080.5 | 970.75
x1 = 0.897 | 757.112 | 746.951 | 720.871 | 1102.8 | 1058.2 | 948.16
x1 = 0.95 | 751.062 | 740.859 | 714.65 | 1089.8 | 1045 | 934.78
x1 = 1 | 745.656 | 735.357 | 709.007 | 1078.9 | 1033.2 | 922.48

CCOC(C)(C)C [2-ethoxy-2-methylpropane] + c1ccccc1
Conditions | mass density, 288.15 K [kg/m3] | mass density, 298.15 K [kg/m3] | mass density, 323.15 K [kg/m3] | speed of sound, 288.15 K [m/s] | speed of sound, 298.15 K [m/s] | speed of sound, 323.15 K [m/s]
x1 = 0.049 | 874.335 | 863.764 | 837.01 | 1327.2 | 1280 | 1165.5
x1 = 0.102 | 864.201 | 853.699 | 827.068 | 1308.3 | 1261.4 | 1147.2
x1 = 0.204 | 846.222 | 835.811 | 809.343 | 1274.8 | 1228.3 | 1114.7
x1 = 0.299 | 830.929 | 820.575 | 794.184 | 1245.6 | 1199.4 | 1086.3
x1 = 0.393 | 816.969 | 806.647 | 780.301 | 1219.1 | 1173 | 1060
x1 = 0.494 | 802.925 | 792.628 | 766.309 | 1192.1 | 1146.5 | 1034.2
x1 = 0.589 | 790.686 | 780.408 | 754.084 | 1168.6 | 1123.6 | 1011.7
x1 = 0.696 | 777.916 | 767.647 | 741.314 | 1143.5 | 1099 | 988.29
x1 = 0.799 | 766.357 | 756.096 | 729.753 | 1120.3 | 1075.7 | 965.1
x1 = 0.906 | 755 | 744.747 | 718.393 | 1097.6 | 1053.3 | 942.92
x1 = 0.953 | 750.242 | 739.991 | 713.647 | 1087.8 | 1044 | 933.45
x1 = 1 | 745.656 | 735.357 | 709.007 | 1078.9 | 1033.2 | 922.48
